Usually IC50 stands for the concentration needed to halve the response being measured. Low values mean greater potency in that assay, high ones weaker potency in that assay.

IC50 data for 15 compounds are collected here from patent US11174230B2, “(E)-4-(4-acrylamidophenoxy)-N-methylpicolinamide conjugates as potential anticancer agents” (Council of Scientific & Industrial Research, priority 2016, dated 2021).

Each structure is given as a SMILES string.

Common to all, as to conditions: after 48 h of drug treatment, average of three individual experiments
One experiment concerns HepG2. As to the kind of experiment: MTT cytotoxicity assay, HepG2 liver cancer cells. Format: cell-based, human. The source says: (§1) The (E)-4-(4-acrylamidophenoxy)-N-methylpicolinamide conjugates of general formulae 6a-6z and 7a-7aj have been evaluated for their cytotoxicity in selected human cancer cell lines i.e., lung (A549), prostate (DU-145), ovarian (SKOV3) and liver (HepG2) using MTT assay and the values obtained were compared to a standard drug sorafenib, with the concentration (treatment done at ranging from 10^−4 to 10^−8 M) of the compound produces to 50% inhibition of cell growth (IC50) as shown in Table 1. […] The IC50 values (in μM) for compounds 6b, 6c, 6d, 6e, 6g, 6l, 6m, 6o, 6p, 6q, 6t, 6z, 7b and 7g have been illustrated in Table 1.
For orientation: Tetrazolium dyes change colour on reduction, which living cells bring about.

The next experiment relates to SKOV3. As to the kind of experiment: MTT cytotoxicity assay, SKOV3 ovarian cancer cells. Format: cell-based.
Description: as §1

In another experiment the test system is DU145. As to the kind of experiment: MTT cytotoxicity assay, DU145 prostate cancer cells. Format: cell-based.
Description: as §1

The subject of the next experiment is A549. As to the kind of experiment: MTT cytotoxicity assay, A549 lung cancer cells. Format: cell-based.
Description: as §1

For the compound `CNC(=O)c1cc(Oc2ccc(NC(=O)/C=C/c3ccc(OC)cc3)cc2)ccn1` [Compound 6b, (E)-4-(4-(3-(4-methoxyphenyl)acrylamido)phenoxy)-N-methylpicolinamide], the IC50 in the experiment with HepG2 (Homo sapiens, HepG2, 48 h) is 8 to 13 µM; with HepG2 it was 9.5 µM; in the experiment on SKOV3 (SK-OV-3, Human ovarian cancer), 10.6 ± 0.32 µM.

For `CNC(=O)c1cc(Oc2ccc(NC(=O)/C=C/c3cccc(OC)c3OC)cc2)ccn1` [Compound 6c, (E)-4-(4-(3-(2,3-dimethoxyphenyl)acrylamido)phenoxy)-N-methylpicolinamide], the half-maximal inhibitory concentration (IC50) was 8 to 13 µM in the experiment with HepG2 (Homo sapiens, HepG2, 48 h) and 12.4 ± 0.16 µM in the experiment with HepG2.

`CNC(=O)c1cc(Oc2ccc(NC(=O)/C=C/c3cc(OC)c(OC)c(OC)c3)cc2)ccn1` [Compound 6d, (E)-N-methyl-4-(4-(3-(3,4,5-trimethoxyphenyl)acrylamido)phenoxy)picolinamide]: the half-maximal inhibitory concentration (IC50) in the experiment with DU145 (DU-145, Human prostate cancer) was 21.1 ± 0.18 µM; with HepG2 (Homo sapiens, HepG2, 48 h), 8 to 13 µM; in the experiment on HepG2, 10.2 µM.

`CNC(=O)c1cc(Oc2ccc(NC(=O)/C=C/c3cc(OC)ccc3OC)cc2)ccn1` [Compound 6e, (E)-4-(4-(3-(2,5-dimethoxyphenyl)acrylamido)phenoxy)-N-methylpicolinamide]: the IC50 in the experiment on DU145 (DU-145, Human prostate cancer) was 29.5 ± 0.26 µM; in the experiment on HepG2 (Homo sapiens, HepG2, 48 h) it was 8 to 13 µM; with HepG2 it was 10.1 µM.

For the compound `CNC(=O)c1cc(Oc2ccc(NC(=O)/C=C/c3cccc(O)c3)cc2)ccn1` [Compound 6g, (E)-4-(4-(3-(3-hydroxyphenyl)acrylamido)phenoxy)-N-methylpicolinamide], the IC50 with HepG2 (Homo sapiens, HepG2, 48 h) is 8 to 13 µM; in the experiment with HepG2 it was 10.9 ± 0.22 µM; with SKOV3 (SK-OV-3, Human ovarian cancer), 12 ± 0.11 µM.

As for `CNC(=O)c1cc(Oc2ccc(NC(=O)/C=C/c3ccc(Cl)cc3)cc2)ccn1` [Compound 6l, (E)-4-(4-(3-(4-chlorophenyl)acrylamido)phenoxy)-N-methylpicolinamide], the IC50 is 17.9 ± 0.24 µM in the experiment with DU145 (DU-145, Human prostate cancer); 8 to 13 µM in the experiment on HepG2 (Homo sapiens, HepG2, 48 h); 9.6 µM with HepG2; 12.6 ± 0.28 µM with SKOV3 (SK-OV-3, Human ovarian cancer).

For `CNC(=O)c1cc(Oc2ccc(NC(=O)/C=C/c3ccc(Cl)c(Cl)c3)cc2)ccn1` [Compound 6m, (E)-4-(4-(3-(3,4-dichlorophenyl)acrylamido)phenoxy)-N-methylpicolinamide], the IC50 was 9.5 ± 0.22 µM in the experiment with A549 (A549, Human lung cancer); 23.3 ± 0.28 µM in the experiment on DU145 (DU-145, Human prostate cancer); 8 to 13 µM with HepG2 (Homo sapiens, HepG2, 48 h); 12.4 ± 0.32 µM in the experiment on HepG2.

As for `CNC(=O)c1cc(Oc2ccc(NC(=O)/C=C/c3ccc(F)cc3)cc2)ccn1` [Compound 6o, (E)-4-(4-(3-(4-fluorophenyl)acrylamido)phenoxy)-N-methylpicolinamide], the IC50 with HepG2 (Homo sapiens, HepG2, 48 h) was 8 to 13 µM; in the experiment with HepG2 it was 12.5 ± 0.18 µM.

On to `CNC(=O)c1cc(Oc2ccc(NC(=O)/C=C/c3ccc(F)cc3F)cc2)ccn1` [Compound 6p, (E)-4-(4-(3-(2,4-difluorophenyl)acrylamido)phenoxy)-N-methylpicolinamide], for which the 50% inhibitory concentration (IC50) is 49.4 ± 0.54 µM with A549 (A549, Human lung cancer); 8 to 13 µM with HepG2 (Homo sapiens, HepG2, 48 h); 13.1 ± 0.26 µM in the experiment on HepG2.

`CNC(=O)c1cc(Oc2ccc(NC(=O)/C=C/c3ccc(F)c(F)c3)cc2)ccn1` [Compound 6q, (E)-4-(4-(3-(3,4-difluorophenyl)acrylamido)phenoxy)-N-methylpicolinamide]: the concentration for half-maximal inhibition (IC50) with HepG2 (Homo sapiens, HepG2, 48 h) is 8 to 13 µM; in the experiment on HepG2, 11.1 ± 0.14 µM; with SKOV3 (SK-OV-3, Human ovarian cancer), 11.2 ± 0.26 µM.

Take `CNC(=O)c1cc(Oc2ccc(NC(=O)/C=C/c3ccc(C(F)(F)F)cc3)cc2)ccn1` [Compound 6t, (E)-N-methyl-4-(4-(3-(4-(trifluoromethyl)phenyl)acrylamido)phenoxy)picolinamide]: the IC50 in the experiment on A549 (A549, Human lung cancer) is 22.3 ± 0.22 µM; in the experiment on HepG2 (Homo sapiens, HepG2, 48 h), 8 to 13 µM; with HepG2 it was 8.2 µM.

For `CNC(=O)c1cc(Oc2ccc(NC(=O)/C=C/c3ccc([N+](=O)[O-])cc3)cc2)ccn1` [Compound 6z, (E)-N-methyl-4-(4-(3-(4-nitrophenyl)acrylamido)phenoxy)picolinamide], the IC50 was 30.1 ± 0.28 µM in the experiment with A549 (A549, Human lung cancer); 28.7 ± 0.36 µM in the experiment with DU145 (DU-145, Human prostate cancer); 8 to 13 µM in the experiment on HepG2 (Homo sapiens, HepG2, 48 h); 12.2 ± 0.22 µM in the experiment with HepG2.

As to `CNC(=O)c1cc(Oc2ccc(NC(=O)/C=C/c3ccco3)cc2)ccn1` [Compound 7b, (E)-4-(4-(3-(furan-2-yl)acrylamido)phenoxy)-N-methylpicolinamide], the IC50 was 8 to 13 µM in the experiment with HepG2 (Homo sapiens, HepG2, 48 h) and 10.2 µM in the experiment with HepG2.

Take `CNC(=O)c1cc(Oc2ccc(NC(=O)/C=C/c3cccs3)cc2)ccn1` [Compound 7g, (E)-N-methyl-4-(4-(3-(thiophen-2-yl)acrylamido)phenoxy)picolinamide]: the IC50 in the experiment on A549 (A549, Human lung cancer) is 24.1 ± 0.44 µM; in the experiment with DU145 (DU-145, Human prostate cancer) it was 12.2 ± 0.26 µM; with HepG2 (Homo sapiens, HepG2, 48 h), 8 to 13 µM; in the experiment on HepG2 it was 13.2 ± 0.11 µM.

For `CNC(=O)c1cc(Oc2ccc(NC(=O)Nc3ccc(Cl)c(C(F)(F)F)c3)cc2)ccn1` [Sorafenib, reference compound], the IC50 with A549 (Human lung cancer) worked out at 6.1 ± 0.18 µM; with DU145 (Human prostate cancer), 6.5 ± 0.22 µM; with HepG2, 14.5 µM; in the experiment on SKOV3 (Human ovarian cancer) it was 9.5 ± 0.12 µM.
